{"source": "patent US11974981B2", "about": "“Methods and compositions for treating endometriosis and endometriosis associated symptoms” (The Board of Trustees of the Leland Stanford Junior …, priority 2017, dated 2024)", "key": {"[1]": {"tested_on": "rodent models of inflammatory pain", "conditions": "earlier work of the inventors; cited from earlier work"}, "[2]": {"tested_on": "homozygous ALDH2*2 knock-in mice", "experiment": "mouse surgical model of endometriosis, endometrial cyst area, ALDH2*2 knock-in mice", "format": "in vivo", "conditions": "ALDH2*2 mice, vs DMSO", "text": "(§1) FIG. 2A-2C. Relative to wild type mice, ALDH2*2 mice develop larger endometrial cysts by 3 days after endometriosis surgery. FIG. 2A In a mouse surgical model of endometriosis, three (2 mm×2 mm) uterine horn auto transplants are sutured onto cascading mesenteric arteries which in turn since located outside the uterus develop cysts in the abdomen. FIG. 2B Female wild type (C57/BL6) and ALDH2*2 knock-in mice on the same genetic background 8-10 weeks of age were induced with endometriosis and sacrificed 1, 3, or 28 days later. Endometrial cysts were collected and cyst area was measured (length×width). FIG. 2C Average cyst area was calculated for each group (wild type: blue, ALDH2*2: red) of mice at day 1, 3, and 28. Data are presented as mean±SEM, n=6 mice/group.\n(§2) FIG. 3A-3D. Alda-1 reduces endometrial cyst size 3 days and 28 days after endometriosis induction. FIG. 3A. […] FIG. 3B. […]\n(§3) Briefly, mice were anesthetized with isoflurane (1-3%) and an off-midline (left side) incision made through the skin and muscle layer to expose the pelvic and abdominal organs. […] On day 1, 3, or 28 after endometriosis induction, mice were sacrificed, endometrial cyst length and width measured to calculate cyst area, and then the average cyst area per group determined."}, "[3]": {"tested_on": "female Sprague-Dawley rats", "experiment": "acetaldehyde-induced vaginal hyperalgesia, escape response to vaginal balloon distention", "format": "in vivo, rat", "conditions": "Alda-1 1 mg/kg i.p. alone, in the absence of the noxious stimulus", "text": "FIG. 1A-1C. Alda-1 mitigates acetaldehyde-induced vaginal hyperalgesia in rats. FIG. 1A Five female Sprague-Dawley rats initially weighing 150-175 g were trained over a period of ˜4 weeks to terminate an escape response from the noxious stimuli produced by a balloon inflated in the vagina. Top image: Rats trained to be accustomed to the testing chamber. Bottom image: The escape response assessed by the rat poking its head into a tube. This response in turn breaks an infrared beam and causes the vaginal balloon to deflate. […] The shaded area is calculated as the area under the curve. n=5 rats/volume FIG. 1C Histogram of vaginal escape response expressed as the area under the curve calculated using standard trapezoid methods. […]\nAlda and endonetriosis: Although rodent inflammatory pain models such as carageenan and CFA may represent some aspects of endometriosis, there is a validated rat model of endometriosis-associated pain, which produces signs and painful symptoms similar to those in women (S. McAllister, K. McGinty, D. Resuehr, K. Berkley. Endometriosis-induced vaginal hyperalgesia in the rat: Role of the ectopic growths and their innervation. Pain. 147: 255-264 (2009)). […] The rat is then monitored to determine an escape response, which is assessed by the rodent breaking an infrared beam with its nose; this, in turn, causes the inflated balloon in the vagina to deflate (FIG. 1A). […]"}, "[4]": {"tested_on": "wild type C57/BL6 mice", "experiment": "mouse surgical model of endometriosis, endometrial cyst area, wild type mice", "format": "in vivo", "conditions": "vs DMSO", "text": "as §1, §2, §3"}, "[5]": {"conditions": "Alda-1 5 mg/kg subcutaneous Alzet pump for 3 days"}}, "note": "“Also recorded” adds a separate entry of the source."}
{"smiles": "O=C(NCc1ccc2c(c1)OCO2)c1c(Cl)cccc1Cl", "note": "[Alda-1, N-(1,3-benzodioxol-5-ylmethyl)-2,6-dichlorobenzamide]", "values": [{"measurement": "pain thresholds", "setting": "[1]", "value": "increases pain thresholds"}, {"measurement": "average endometrial cyst area", "setting": "[2]; [5]", "value": "significant reduction; also recorded: significantly reduced"}, {"measurement": "average endometrial cyst area", "setting": "[2]; Alda-1 5 mg/kg subcutaneous Alzet pump for 28 days", "value": "significant reduction; also recorded: significantly reduced"}, {"measurement": "vaginal escape response (area under the curve), effect of compound alone", "setting": "[3]", "value": "No effect"}, {"measurement": "average endometrial cyst area", "setting": "[4]; [5]", "value": "significant reduction"}, {"measurement": "average endometrial cyst area", "setting": "[4]; Alda-1 5 mg/kg subcutaneous Alzet pump for 28 days, 5 mg/kg", "value": "significant reduction; also recorded: significantly reduced"}]}
